Data: patent EP0172321B1, “Squarylium charge generating dye and electrophotographic photoconductor” (International Business Machines Corporation, priority 1984, dated 1986)
Where “and” joins values, the source holds several entries; their conditions need not be identical. Equal entries are not always repeated.

What was measured:
[1] = system: Salmonella typhimurium: TA1535, TA1537, TA1538, TA98 and TA100; test: Ames Salmonella/microsome assay, five standard strains; type: cell-based; parameters: unit not given here; conditions: Ames plates, DMSO solvent
Procedure: (§1) This mutagenicity testing was performed using DMSO as the solvent. Six dose levels were tested in duplicate, with and without metabolic activation, in five tester strains (TA1535, TA1537, TA1538, TA98, and TA100). The tests were repeated to ensure reproducibility.
Ames test of the 2,4-di-(o-hydroxy-p-pyrrolidino phenyl) cyclobutene diylium-1,3-diolate (hydroxy pyrrolidino squarylium or OHPYRRSQ) of the present invention dye was conducted.
This compound was examined for mutagenic activity in the Ames Salmonella/microsome assay using the five standard strains of Salmonella typhimurium: TA1535, TA1537, TA1538, TA98 and TA100. All assays were performed in duplicate, both in the presence and the absence of a rat-liver metabolic activation system. DMSO was used as the solvent.
The compound was tested on two separate days at doses ranging from […]. Low-level S-9 was used in the first assay and high-level S-9 was used in the confirming assay.

[2] = Ames test for mutagenicity, tester strain TA1538; type: cell-based, Salmonella typhimurium
Procedure: (§2) Ames test of the prior art dye 2,4-di-(o-hydroxy-p-dimethylamino phenyl) cyclobutene diylium-1,3- diolate was then conducted. This dye is of the type shown in Example 11 of aforesaid US-A-3,824,099.
as §1

TA1538 = test: Ames test for mutagenicity, tester strain TA1538; type: cell-based, Salmonella typhimurium
Procedure: as §2, §1

[3] = Ames test for mutagenicity, tester strain TA98; type: cell-based, Salmonella typhimurium; conditions: read-out: TA98 × background
Procedure: as §2, §1

TA98 = test: Ames test for mutagenicity, tester strain TA98; type: cell-based, Salmonella typhimurium
Procedure: as §2, §1

[4] = purified dye, dimethylamino phenol precursor distilled, DMSO solvent, replicate Test no./Assay no.
[5] = without purification of the dye, replicate Assay no.

Row | SMILES | Dose level at and above which precipitate was observed [1] | fold induction ([2]; ames ta1538, purified dye, dimethylamino phenol precursor distilled, DMSO solvent, replicate Test no./Assay no., read-out: TA1538 × background) | fold induction ([2]; ames ta1538, without purification of the dye, replicate Assay no., read-out: TA1548 × background) | TA1538 × background (TA1538; [4]) | TA1548 × background (TA1538; [5]) | fold induction ([3]; ames ta98, purified dye, dimethylamino phenol precursor distilled, DMSO solvent, replicate Test no./Assay no.) | fold induction ([3]; ames ta98, without purification of the dye, replicate Assay no.) | TA98 × background (TA98; [4]) | TA98 × background (TA98; [5])
1 | O=C1C(=C2C=CC(=[N+]3CCCC3)C=C2O)C([O-])=C1c1ccc(N2CCCC2)cc1O [OHPYRRSQ, 2,4-di-(o-hydroxy-p-pyrrolidinophenyl) cyclobutene diylium-1,3-diolate] | ≥ 500 |  |  |  |  |  |  |  | 
2 | CN(C)c1ccc(C2=C([O-])C(=C3C=CC(=[N+](C)C)C=C3O)C2=O)c(O)c1 [OHSQ, 2,4-di-(o-hydroxy-p-dimethylaminophenyl) cyclobutene diylium-1,3-diolate] |  | 2.9 | 4.9 | 2.9 × background and 2.8 × background and 3.3 × background | 6.8 × background | 2.4 | 2.6 | 2.3 × background and 2.7 × background and 2.90 × background | 3.3 × background
